Assay results reported in patent US8889878B2, “Haloalky-substituted amides as insecticides and acaricides” (Bayer CropScience AG, priority 2009, dated 2014).

Assay: logP by HPLC on reverse-phase column (EEC Directive 79/831 Annex V.A8)
Format: physicochemical
Description: The logP values reported in the above Tables and Preparation Examples were determined according to EEC Directive 79/831 Annex V.A8 by HPLC (High Performance Liquid Chromatography) on a reverse-phase column (C18). Temperature 43° C.

[1] = HPLC-MS, HPLC on reverse-phase column
[2] = HPLC, C18 reverse phase, 43° C., acidic range pH 2.7, calibration with alkan-2-ones

| SMILES | logP (HPLC-MS) | other results |
| --- | --- | --- |
| N#Cc1cc(/C=C/C(=O)NC(c2cccc(C(F)(F)F)c2)C(F)(F)F)ccc1-n1cncn1 (stereo not shown) [Ia-10] | HPLC-MS: logP = 2.99; mass | – |
| Cc1cc(/C=C/C(=O)NC(c2cccc(C(F)(F)F)c2)C(F)(F)F)ccc1C(=O)NC1CC1 (stereo not shown) [Ia-11] | HPLC-MS: logP = 3.02; mass | – |
| Cc1cc(/C=C/C(=O)NC(c2cc(Cl)cc(Cl)c2)C(F)(F)F)ccc1C(=O)NC1CC1 (stereo not shown) [Ia-12] | HPLC-MS: logP = 3.33; mass | – |
| N#Cc1cc(/C=C/C(=O)NC(c2cccc(F)c2)C(F)(F)F)ccc1-n1cncn1 (stereo not shown) [Ia-13] | HPLC-MS: logP = 2.61; mass | – |
| N#Cc1cc(/C=C/C(=O)NC(c2ccc(C(F)(F)F)cc2)C(F)(F)F)ccc1-n1cncn1 (stereo not shown) [Ia-14] | HPLC-MS: logP = 3.08; mass | – |
| N#Cc1cc(/C=C/C(=O)NC(c2cc(Cl)cc(Cl)c2)C(F)(F)F)ccc1-n1cncn1 (stereo not shown) [Ia-16] | HPLC-MS: logP = 3.33; mass | – |
| Cc1cc(/C=C/C(=O)NC(c2cc(Cl)cc(Cl)c2)C(F)(F)F)ccc1C(=O)NCC(F)(F)F (stereo not shown) [Ia-20] | HPLC-MS: logP = 3.90; mass | – |
| CN(C(=O)/C=C/c1ccc(C#N)cc1)C(c1cccc(C(F)(F)F)c1)C(F)(F)F (stereo not shown) [Ia-25, (2E)-3-(4-Cyanophenyl)-N-methyl-N-{2,2,2-trifluoro-1-[3-(trifluoromethyl)phenyl]-ethyl}acrylamide] | – | chromatographic logP (reverse-phase C18 HPLC column, pH 2.7, HPLC, C18 reverse phase, 43° C., acidic range pH 2.7, calibration with alkan-2-ones): 4.01 |
| COC(=O)c1ccc(/C=C/C(=O)NC(c2cccc(C(F)(F)F)c2)C(F)(F)F)cc1C (stereo not shown) [Ia-26] | HPLC-MS: logP = 4.09; mass | – |
| O=C(/C=C/c1ccc(C(=O)NCc2ccccn2)c(C(F)(F)F)c1)NC(c1cccc([N+](=O)[O-])c1)C(F)(F)F (stereo not shown) [Ia-33] | HPLC-MS: logP = 2.93; mass | – |
| O=C(/C=C/c1ccc(C(=O)NCc2ccccn2)c(C(F)(F)F)c1)NC(c1ccc([N+](=O)[O-])cc1)C(F)(F)F (stereo not shown) [Ia-34] | HPLC-MS: logP = 2.93; mass | – |
| O=C(/C=C/c1ccc(C(=O)NCc2ccccn2)c(C(F)(F)F)c1)NC(c1c(F)cccc1F)C(F)(F)F (stereo not shown) [Ia-35] | HPLC-MS: logP = 2.46; mass | – |
| O=C(/C=C/c1ccc(C(=O)NC2CC2)c(C(F)(F)F)c1)NC(c1c(F)cccc1F)C(F)(F)F (stereo not shown) [Ia-38] | HPLC-MS: logP = 2.89; mass | – |
| Cc1cc(/C=C/C(=O)NC(c2cc(Cl)cc(C(F)(F)F)c2)C(F)(F)F)ccc1C(=O)NC1CC1 (stereo not shown) [Ia-39] | HPLC-MS: logP = 3.47; mass | – |
| O=C(/C=C/c1ccc(C(=O)Nc2cccnc2)c(C(F)(F)F)c1)NC(c1cccc(C(F)(F)F)c1)C(F)(F)F (stereo not shown) [Ia-53] | HPLC-MS: logP = 2.76; mass | – |
| COC(=O)c1ccc(C(NC(=O)/C=C/c2ccc(C(=O)NC3CC3)c(C(F)(F)F)c2)C(F)(F)F)cc1C(F)(F)F (stereo not shown) [Ia-81] | HPLC-MS: logP = 3.09; mass | – |
| CCOC1(NC(=O)c2ccc(/C=C/C(=O)NC(c3cccc(C(F)(F)F)c3)C(F)(F)F)cc2C)CC1 (stereo not shown) [Ia-85] | HPLC-MS: logP = 3.27 mass | – |
| Cc1cc(/C=C/C(=O)NC(c2cccc(C(F)(F)F)c2)C(F)(F)F)ccc1C(=O)N(C)C1CC1 (stereo not shown) [Ia-116] | HPLC-MS: logP = 3.37 mass | – |
| O=C(/C=C/c1ccc(S(=O)(=O)NC2CC2)cc1)NC(c1cccc(C(F)(F)F)c1)C(F)(F)F (stereo not shown) [Ia-117] | HPLC-MS: logP = 3.33; mass | – |
| O=C(/C=C/c1ccc(C(=O)NC2CC2)c(Cl)c1)NC(c1cccc(C(F)(F)F)c1)C(F)(F)F (stereo not shown) [Ia-118] | HPLC-MS: logP = 3.24; mass | – |
| O=C(/C=C/c1ccc(C(=O)Nc2cccc(Cl)n2)c(C(F)(F)F)c1)NC(c1cccc(C(F)(F)F)c1)C(F)(F)F (stereo not shown) [Ia-120] | HPLC-MS: logP = 4.33; mass | – |

| SMILES | logP (HPLC-MS) | other results |
| --- | --- | --- |
| O=C(/C=C/c1ccc(C(=O)NCc2ncccn2)c(Br)c1)NC(c1cccc(C(F)(F)F)c1)C(F)(F)F (stereo not shown) [Ia-133] | HPLC-MS: logP = 2.93; mass | – |
| CC(NC(=O)c1ccc(/C=C/C(=O)NC(c2cccc(C(F)(F)F)c2)C(F)(F)F)cc1C(F)(F)F)C1(Cl)CC1 (stereo not shown) [Ia-171] | HPLC-MS: logP = 4.18; mass | – |
| CC(CF)NC(=O)c1ccc(/C=C/C(=O)NC(c2cccc(C(F)(F)F)c2)C(F)(F)F)cc1Br (stereo not shown) [Ia-173] | HPLC-MS: logP = 3.35; mass | – |
| O=C(/C=C/c1ccc(C(=O)NCc2nccs2)c(Br)c1)NC(c1cccc(C(F)(F)F)c1)C(F)(F)F (stereo not shown) [Ia-177] | HPLC-MS: logP = 3.14; mass | – |
| CC(C)C(C#N)NC(=O)c1ccc(/C=C/C(=O)NC(c2cccc(C(F)(F)F)c2)C(F)(F)F)cc1Cl (stereo not shown) [Ia-182] | HPLC-MS: logP = 3.68; mass | – |
| O=C(/C=C/c1ccc(C(=O)Nc2nccs2)c(Cl)c1)NC(c1cccc(C(F)(F)F)c1)C(F)(F)F (stereo not shown) [Ia-185] | HPLC-MS: logP = 3.51; mass | – |
| Cn1ccc(CNC(=O)c2ccc(/C=C/C(=O)NC(c3cccc(C(F)(F)F)c3)C(F)(F)F)cc2Cl)n1 (stereo not shown) [Ia-186] | HPLC-MS: logP = 2.95; mass | – |
| O=C(/C=C/c1ccc(C(=O)Nc2cccnn2)c(Cl)c1)NC(c1cccc(C(F)(F)F)c1)C(F)(F)F (stereo not shown) [Ia-217] | HPLC-MS: logP = 3.29; mass | – |
| COC(=O)c1ccc(NC(=O)c2ccc(/C=C/C(=O)NC(c3cccc(C(F)(F)F)c3)C(F)(F)F)cc2Cl)nc1 (stereo not shown) [Ia-218] | HPLC-MS: logP = 3.92; mass | – |
| O=C(/C=C/c1ccc(C(=O)NC2C[S+]([O-])C2)c(C(F)(F)F)c1)NC(c1cccc(C(F)(F)F)c1)C(F)(F)F (stereo not shown) [Ia-227] | HPLC-MS: logP = 2.71; mass | – |
| O=C(/C=C/c1ccc(C(=O)Nc2ccc(Cl)nn2)c(Cl)c1)NC(c1cccc(C(F)(F)F)c1)C(F)(F)F (stereo not shown) [Ia-228] | HPLC-MS: logP = 3.7; mass | – |
| O=C(/C=C/c1ccc(C(=O)NC2CC2)c(C(F)(F)F)c1)NC(c1cccc(F)c1)C(F)(F)F (stereo not shown) [Ia-230] | HPLC-MS: logP = 2.95; mass | – |
| O=C(/C=C/c1ccc(C(=O)NC2CC2)c(C(F)(F)F)c1)NC(c1cccc(Cl)c1)C(F)(F)F (stereo not shown) [Ia-231] | HPLC-MS: logP = 3.22; mass | – |
| Cc1cccc(C(NC(=O)/C=C/c2ccc(C(=O)NC3CC3)c(C(F)(F)F)c2)C(F)(F)F)c1 (stereo not shown) [Ia-232] | HPLC-MS: logP = 3.17; mass | – |
| O=C(/C=C/c1ccc(C(=O)NC2CC2)cc1Cl)NC(c1cccc(C(F)(F)F)c1)C(F)(F)F (stereo not shown) [Ia-233] | HPLC-MS: logP = 3.46; mass | – |
| O=C(/C=C/c1ccc(C(=O)NC2CC2)cc1Cl)NC(c1cccc(Cl)c1)C(F)(F)F (stereo not shown) [Ia-234] | HPLC-MS: logP = 3.3; mass | – |
| O=C(/C=C/c1ccc(C(=O)NCc2ccc(F)cn2)c(Cl)c1)NC(c1cccc(C(F)(F)F)c1)C(F)(F)F (stereo not shown) [Ia-236] | HPLC-MS: logP = 3.15; mass | – |
| CCC(=O)NCc1ccc(/C=C/C(=O)NC(c2cccc(C(F)(F)F)c2)C(F)(F)F)cc1C(F)(F)F (stereo not shown) [Ia-238] | HPLC-MS: logP = 3.51; mass | – |
| O=C(/C=C/c1ccc(CNC(=O)C2CC2)c(C(F)(F)F)c1)NC(c1cccc(C(F)(F)F)c1)C(F)(F)F (stereo not shown) [Ia-240] | HPLC-MS: logP = 3.76; mass | – |
| CCC(=O)NCc1ccc(/C=C/C(=O)NC(c2cccc(C(F)(F)F)c2)C(F)(F)F)cc1 (stereo not shown) [Ia-241] | HPLC-MS: logP = 2.8; mass | – |
| CS(=O)(=O)c1cccc(C(NC(=O)/C=C/c2ccc(C(=O)NC3CC3)c(C(F)(F)F)c2)C(F)(F)F)c1 (stereo not shown) [Ia-243] | HPLC MS: logP = 2.31; mass | – |

| SMILES | logP (HPLC-MS) | other results |
| --- | --- | --- |
| CS(=O)(=O)c1cccc(C(NC(=O)/C=C/c2ccc(C(=O)Nc3ccccn3)c(C(F)(F)F)c2)C(F)(F)F)c1 (stereo not shown) [Ia-244] | HPLC-MS: logP = 2.62; mass | – |
| CC(=O)NCc1ccc(/C=C/C(=O)NC(c2cccc([S+](C)[O-])c2)C(F)(F)F)cc1C(F)(F)F (stereo not shown) [Ia-245] | HPLC-MS: logP = 1.98; mass | – |
| O=C(/C=C/c1ccc(C(=O)Nc2ccccn2)c(C(F)(F)F)c1)NC(c1cccc(Cl)c1)C(F)(F)F (stereo not shown) [Ia-246] | HPLC-MS: logP = 3.37; mass | – |
| CC(=O)NCc1ccc(/C=C/C(=O)NC(c2cccc(C(F)(F)F)c2)C(F)(F)F)cc1C (stereo not shown) [Ia-249] | HPLC-MS: logP = 2.9; mass | – |
| Cc1cccnc1NC(=O)c1ccc(/C=C/C(=O)NC(c2cccc(C(F)(F)F)c2)C(F)(F)F)cc1C(F)(F)F (stereo not shown) [Ia-255] | HPLC-MS: logP = 3.19; mass | – |
| CC1CC1NC(=O)c1ccc(C=CC(=O)NC(c2cccc(C(F)(F)F)c2)C(F)(F)F)cc1C(F)(F)F (stereo not shown) [Ia-261] | – | logP [1]: HPLC-MS: logP = 3.46; mass |
| O=C(/C=C/c1ccc(C(=O)NCC(=O)NCC(F)(F)F)c(C(F)(F)F)c1)NC(c1cccc(C(F)(F)F)c1)C(F)(F)F (stereo not shown) [Ia-262] | – | logP [1]: HPLC-MS: logP = 3.11; mass |
| O=C(/C=C/c1ccc(CNc2ccccn2)c(C(F)(F)F)c1)NC(c1cccc(C(F)(F)F)c1)C(F)(F)F (stereo not shown) [Ia-263] | – | logP [1]: HPLC-MS: logP = 2.2; mass |
| O=C(/C=C/c1ccc(CNc2cc(Cl)ccn2)cc1)NC(c1cccc(C(F)(F)F)c1)C(F)(F)F (stereo not shown) [Ia-265] | – | logP [1]: HPLC-MS: logP = 3.15; mass |
| O=C(/C=C/c1ccc(CNC(=O)c2ccsc2)c(C(F)(F)F)c1)NC(c1cccc(C(F)(F)F)c1)C(F)(F)F (stereo not shown) [Ia-268] | – | logP [1]: HPLC-MS: logP = 3.92; mass |
| O=C(/C=C/c1ccc(CNC(=O)C2COC(=O)C2)c(C(F)(F)F)c1)NC(c1cccc(C(F)(F)F)c1)C(F)(F)F (stereo not shown) [Ia-269] | – | logP [1]: HPLC-MS: logP = 3.34; mass |
| O=C(/C=C/c1ccc(C(=O)NC2CC2)c(C(F)(F)F)c1)NC(c1cc(Cl)c(Cl)c(Cl)c1)C(F)(F)F (stereo not shown) [Ia-283] | – | logP [1]: HPLC-MS: logP = 4.1; mass |
| O=C(/C=C/c1ccc(C(=O)NCc2ccccc2)c(C(F)(F)F)c1)NC(c1ccncc1)C(F)(F)F (stereo not shown) [Ib-1] | – | logP [2]: HPLC-MS: logP = 3.02 mass (m/z): |
| N#Cc1ccc2cc(C(=O)NC(c3cccc(C(F)(F)F)c3)C(F)(F)F)oc2c1 (stereo not shown) [Ic-3] | – | logP [2]: HPLC-MS: logP = 3.72; mass |
| N#Cc1ccc2oc(C(=O)NC(c3ccc(Cl)c(Cl)c3)C(F)(F)F)cc2c1 (stereo not shown) [Ic-5] | – | logP [2]: HPLC-MS: logP = 3.95; mass |
| NC(=O)c1ccc2oc(C(=O)NC(c3cccc(C(F)(F)F)c3)C(F)(F)F)cc2c1 (stereo not shown) [Ic-6] | – | logP [2]: HPLC-MS: logP = 2.69; mass |
| N#Cc1ccc2oc(C(=O)NC(c3ccc(Cl)cc3Cl)C(F)(F)F)cc2c1 (stereo not shown) [Ic-7] | – | logP [2]: HPLC-MS: logP = 4.04; mass |
| N#Cc1ccc2cc(C(=O)NC(c3cccc(C(F)(F)F)c3)C(F)(F)F)[nH]c2c1 (stereo not shown) [Ic-8] | – | logP [2]: HPLC-MS: logP = 3.51; mass |
| CS(=O)(=O)c1ccc2[nH]c(C(=O)NC(c3cccc(C(F)(F)F)c3)C(F)(F)F)cc2c1 (stereo not shown) [Ic-9] | – | logP [2]: HPLC-MS: logP = 2.92; mass |
